The nature of the data set: Azithromycin solubility in organic solvents. The class given is physicochemical.

`CC[C@H]1OC(=O)[C@H](C)[C@@H](O[C@H]2C[C@@](C)(OC)[C@@H](O)[C@H](C)O2)[C@H](C)[C@@H](O[C@@H]2O[C@H](C)C[C@H](N(C)C)[C@H]2O)[C@](C)(O)C[C@@H](C)CN(C)[C@H](C)[C@@H](O)[C@]1(C)O` [Azithromycin, (2R,3S,4R,5R,8R,10R,11R,12S,13S,14R)-13-[(2,6-dioxy-3-C-methyl-3-O-methyl-a-L-ribohexopyranozyl)oxy]-2-ethyl-3,4, 10-trihydroxy-3,5,6,8,10,12,14-heptamethyl-11-[[3,4,6-trideoxy-3-(dimethylamino)-b-D-xylo-hexapyranozyl]oxy]-1-ox-6-azacyclopentadecane-15-one] had a Maximum azithromycin conc. (solvent 2-Pyrrolidone) of 28.9%; a Maximum azithromycin conc. (solvent 3,3-dimethyl-2-pyrrolidone) of 26.4%; a Maximum azithromycin conc. (solvent Dimethylacetamide) of 32.1%; a Maximum azithromycin conc. (solvent Dimethylsulfoxide) of 26.4%; a Maximum azithromycin conc. (solvent N-ethoxy-2-pyrrolidone) of 23.3%; a Maximum azithromycin conc. (solvent N-ethyl-2-pyrrolidone) of 25.8%. Besides, the Maximum azithromycin conc. was determined as 31.2% (solvent N-methyl-2-pyrrolidone), 21.5% (solvent N-octyl-2-pyrrolidone), 13.4% (solvent Propylene glycol) and 10.2% (solvent Transcutol).

(Values after patent US20180042953A1, “ANTIBACTERIAL INJECTABLE PHARMACEUTICAL COMPOSITION” (OBSHCHESTVO S OGRANICHENNOY OTVETSTVENNOSTYU "VIK - …, priority 2012, published 2018).)
